Reference: ChEMBL document CHEMBL1131670, “N-hydroxyurea and hydroxamic acid inhibitors of cyclooxygenase and 5-lipoxygenase” (Bioorg Med Chem Lett, 1999)
pIC50: −log10 of the molar value.

Experiments:
[1] = biological target: T1, Polyunsaturated fatty acid 5-lipoxygenase (Rattus norvegicus) (UniProt P12527); test: Inhibitory activity against 5-lipoxygenase (5-LO) using broken rat […] leukemia cells (RBL-1)at 10 uM; assay type: cell-based
T1 sequence (whole entry): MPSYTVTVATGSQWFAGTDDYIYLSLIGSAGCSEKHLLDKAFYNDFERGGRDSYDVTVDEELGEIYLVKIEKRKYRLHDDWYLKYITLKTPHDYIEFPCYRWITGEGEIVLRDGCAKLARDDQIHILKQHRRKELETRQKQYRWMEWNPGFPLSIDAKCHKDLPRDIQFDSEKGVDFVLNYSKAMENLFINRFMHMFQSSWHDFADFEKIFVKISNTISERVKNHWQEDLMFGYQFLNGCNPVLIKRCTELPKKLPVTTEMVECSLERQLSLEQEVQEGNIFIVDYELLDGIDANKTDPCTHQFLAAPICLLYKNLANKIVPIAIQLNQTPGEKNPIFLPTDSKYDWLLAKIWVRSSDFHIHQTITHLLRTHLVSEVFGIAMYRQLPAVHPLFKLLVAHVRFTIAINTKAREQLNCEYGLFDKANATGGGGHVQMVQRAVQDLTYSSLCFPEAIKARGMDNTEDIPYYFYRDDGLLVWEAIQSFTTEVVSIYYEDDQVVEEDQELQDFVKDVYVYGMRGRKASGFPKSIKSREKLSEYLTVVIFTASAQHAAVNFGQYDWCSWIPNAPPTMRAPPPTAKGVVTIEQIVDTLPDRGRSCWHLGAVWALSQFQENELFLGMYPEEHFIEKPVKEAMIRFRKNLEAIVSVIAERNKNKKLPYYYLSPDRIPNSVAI

[2] = biological target: T2, Prostaglandin G/H synthase 1 (Ovis aries) (UniProt P05979); test: Inhibitory activity against Cyclooxygenase using sheep seminal vesicle (SSV) enzyme (COX-1) at 10 uM; assay type: tissue-based
T2 sequence (whole entry): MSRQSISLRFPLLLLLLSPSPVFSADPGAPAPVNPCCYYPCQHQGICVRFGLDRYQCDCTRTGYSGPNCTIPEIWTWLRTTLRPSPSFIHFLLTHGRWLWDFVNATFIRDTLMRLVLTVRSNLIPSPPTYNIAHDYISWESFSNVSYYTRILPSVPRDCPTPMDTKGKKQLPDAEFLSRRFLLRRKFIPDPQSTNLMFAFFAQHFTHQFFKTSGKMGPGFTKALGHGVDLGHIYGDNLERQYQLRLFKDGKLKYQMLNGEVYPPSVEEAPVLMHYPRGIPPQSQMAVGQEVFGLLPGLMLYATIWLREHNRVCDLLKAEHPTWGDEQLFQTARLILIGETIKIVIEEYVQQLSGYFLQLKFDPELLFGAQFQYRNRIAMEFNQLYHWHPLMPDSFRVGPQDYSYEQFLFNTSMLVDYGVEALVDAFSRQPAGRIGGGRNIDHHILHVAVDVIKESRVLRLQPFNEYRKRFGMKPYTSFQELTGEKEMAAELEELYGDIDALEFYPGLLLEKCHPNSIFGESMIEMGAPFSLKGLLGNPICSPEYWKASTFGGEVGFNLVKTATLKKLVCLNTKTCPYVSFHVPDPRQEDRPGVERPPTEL

[3] = biological target: T3, Cyclooxygenase (Rattus norvegicus) (UniProt P35355+Q63921); test: (§1) Inhibitory activity against Cyclooxygenase (COX) using broken rat […] leukemia cells (RBL-1); assay type: cell-based; settings: concentration not given here
[4] = biological target: T4, Cyclooxygenase (Rattus norvegicus, UniProt P35355+Q63921); test: Inhibitory activity against cyclooxygenase (COX) in intact rat […] leukemia cells (RBL-1); assay type: cell-based
T4 sequence (P35355 whole entry): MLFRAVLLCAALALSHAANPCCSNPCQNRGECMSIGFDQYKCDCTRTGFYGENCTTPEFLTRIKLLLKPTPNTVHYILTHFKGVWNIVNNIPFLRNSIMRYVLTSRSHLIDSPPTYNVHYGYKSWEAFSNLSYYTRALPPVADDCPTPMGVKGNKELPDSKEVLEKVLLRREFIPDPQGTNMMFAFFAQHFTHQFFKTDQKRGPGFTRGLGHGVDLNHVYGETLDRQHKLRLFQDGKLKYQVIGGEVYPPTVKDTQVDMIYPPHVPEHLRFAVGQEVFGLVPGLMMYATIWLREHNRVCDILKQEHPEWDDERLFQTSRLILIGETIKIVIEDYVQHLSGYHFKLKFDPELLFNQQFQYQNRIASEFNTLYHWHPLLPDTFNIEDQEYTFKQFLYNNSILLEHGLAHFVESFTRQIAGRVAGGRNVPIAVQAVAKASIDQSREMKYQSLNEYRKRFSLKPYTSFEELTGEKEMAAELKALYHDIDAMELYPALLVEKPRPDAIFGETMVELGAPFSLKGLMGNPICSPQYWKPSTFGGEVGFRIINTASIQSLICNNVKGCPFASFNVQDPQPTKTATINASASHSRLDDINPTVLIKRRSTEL
T4 sequence (Q63921 whole entry): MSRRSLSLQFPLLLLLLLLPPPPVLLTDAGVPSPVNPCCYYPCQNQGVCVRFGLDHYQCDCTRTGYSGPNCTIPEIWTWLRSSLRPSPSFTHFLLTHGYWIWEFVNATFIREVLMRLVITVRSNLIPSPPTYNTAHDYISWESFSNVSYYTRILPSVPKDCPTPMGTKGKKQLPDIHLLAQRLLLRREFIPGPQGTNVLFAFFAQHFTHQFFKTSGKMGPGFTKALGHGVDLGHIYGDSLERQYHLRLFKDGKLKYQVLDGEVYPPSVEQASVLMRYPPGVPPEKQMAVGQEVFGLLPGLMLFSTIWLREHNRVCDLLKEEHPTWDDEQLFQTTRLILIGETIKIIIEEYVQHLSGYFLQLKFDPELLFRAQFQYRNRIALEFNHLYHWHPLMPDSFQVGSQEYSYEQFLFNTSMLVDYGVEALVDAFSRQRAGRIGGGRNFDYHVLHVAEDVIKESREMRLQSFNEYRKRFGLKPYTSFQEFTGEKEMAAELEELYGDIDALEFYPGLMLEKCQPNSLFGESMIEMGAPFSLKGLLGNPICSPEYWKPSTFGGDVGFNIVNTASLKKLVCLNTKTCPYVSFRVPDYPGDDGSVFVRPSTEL

[5] = biological target: T5, Cyclooxygenase (Homo sapiens) (UniProt P35354+P23219); test: Inhibitory activity against cyclooxygenase (COX) in after oral administration of 5 mg/kg at 2 hr to canine; assay type: organism-based; parameters: dose 5 mg/kg; settings: Canis lupus familiaris; target entry is the homologue from another species; at 5 mg/kg
[6] = biological target: T6, Polyunsaturated fatty acid 5-lipoxygenase (Homo sapiens) (UniProt P09917); test: Inhibitory activity against 5-lipoxygenase (5-LO) in after oral administration of 5 mg/kg at 24 hr r; assay type: organism-based; parameters: dose 5 mg/kg; settings: Canis lupus familiaris; at 5 mg/kg
T6 sequence (whole entry): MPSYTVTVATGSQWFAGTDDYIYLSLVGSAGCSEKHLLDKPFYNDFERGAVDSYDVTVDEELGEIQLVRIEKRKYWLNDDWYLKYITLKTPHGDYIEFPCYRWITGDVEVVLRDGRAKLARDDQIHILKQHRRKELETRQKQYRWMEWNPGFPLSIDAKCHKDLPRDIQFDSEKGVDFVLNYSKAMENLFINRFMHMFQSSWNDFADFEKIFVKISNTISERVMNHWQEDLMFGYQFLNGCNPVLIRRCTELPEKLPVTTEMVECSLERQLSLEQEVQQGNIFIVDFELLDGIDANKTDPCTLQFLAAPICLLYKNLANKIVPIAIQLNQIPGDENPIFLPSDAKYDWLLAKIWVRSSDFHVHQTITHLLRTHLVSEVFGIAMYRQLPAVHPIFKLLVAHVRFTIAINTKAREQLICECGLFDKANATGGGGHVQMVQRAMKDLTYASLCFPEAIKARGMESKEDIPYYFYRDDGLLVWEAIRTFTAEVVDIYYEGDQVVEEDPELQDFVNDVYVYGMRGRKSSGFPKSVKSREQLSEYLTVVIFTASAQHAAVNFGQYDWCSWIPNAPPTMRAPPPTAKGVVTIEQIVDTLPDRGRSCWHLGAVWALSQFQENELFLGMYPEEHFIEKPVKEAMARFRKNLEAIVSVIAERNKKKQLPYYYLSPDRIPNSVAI

[7] = biological target: T6, Polyunsaturated fatty acid 5-lipoxygenase (Homo sapiens); test: Inhibitory activity against 5-lipoxygenase (5-LO) in after oral administration of 5 mg/kg at 4 hr; assay type: organism-based; parameters: dose 5 mg/kg; settings: Canis lupus familiaris; at 5 mg/kg
[8] = biological target: T5, Cyclooxygenase (Homo sapiens); test: Inhibitory activity against cyclooxygenase (COX) in after oral administration of 5 mg/kg at 24 hr r; assay type: organism-based; parameters: dose 5 mg/kg; settings: Canis lupus familiaris; at 5 mg/kg
[9] = biological target: T6, Polyunsaturated fatty acid 5-lipoxygenase (Homo sapiens); test: Inhibitory activity against 5-lipoxygenase (5-LO) in after oral administration of 5 mg/kg at 8 hr; assay type: organism-based; parameters: dose 5 mg/kg; settings: Canis lupus familiaris; at 5 mg/kg
[10] = biological target: T6, Polyunsaturated fatty acid 5-lipoxygenase (Homo sapiens); test: Inhibitory activity against 5-lipoxygenase (5-LO) in after oral administration of 5 mg/kg at 2 hr; assay type: organism-based; parameters: dose 5 mg/kg; settings: Canis lupus familiaris; at 5 mg/kg
[11] = biological target: T5, Cyclooxygenase (Homo sapiens); test: Inhibitory activity against cyclooxygenase (COX) in after oral administration of 5 mg/kg at 8 hr; assay type: organism-based; parameters: dose 5 mg/kg; settings: Canis lupus familiaris; at 5 mg/kg
[12] = biological target: T5, Cyclooxygenase (Homo sapiens); test: Inhibitory activity against cyclooxygenase (COX) in after oral administration of 5 mg/kg at 4 hr; assay type: organism-based; parameters: dose 5 mg/kg; settings: Canis lupus familiaris; at 5 mg/kg
[13] = biological target: T1, Polyunsaturated fatty acid 5-lipoxygenase (Rattus norvegicus); test: Inhibitory activity against 5-lipoxygenase (5-LO) using broken rat […] leukemia cells (RBL-1) at 10 uM; assay type: cell-based
[14] = biological target: T2, Prostaglandin G/H synthase 1 (Ovis aries); test: Inhibitory activity against Cyclooxygenase using sheep seminal vesicle (SSV) enzyme (COX-1) Inhibition at 10 uM; assay type: tissue-based
[15] = biological target: T3, Cyclooxygenase (Rattus norvegicus); test: Inhibitory activity against Cyclooxygenase (COX) using broken rat […] leukemia cells (RBL-1) at 10 uM; assay type: cell-based
[16] = biological target: T7, Polyunsaturated fatty acid 5-lipoxygenase (Rattus norvegicus, UniProt P12527); test: Inhibitory activity against 5-lipoxygenase (5-LO) using broken rat […] leukemia cells (RBL-1); assay type: cell-based
T7 sequence (P12527 whole entry): T1 sequence (whole entry)

[17] = biological target: T4, Cyclooxygenase; test: as §1; assay type: cell-based
[18] = biological target: T5, Cyclooxygenase (Homo sapiens); test: Inhibitory activity against cyclooxygenase (COX) in after oral administration of 5 mg/kg at 4 hr to canine; assay type: organism-based; parameters: dose 5 mg/kg; settings: Canis lupus familiaris; target entry is the homologue from another species; at 5 mg/kg
[19] = biological target: T6, Polyunsaturated fatty acid 5-lipoxygenase (Homo sapiens); test: Inhibitory activity against 5-lipoxygenase (5-LO) in after oral administration of 5 mg/kg at 8 hr to canine; assay type: organism-based; parameters: dose 5 mg/kg; settings: Canis lupus familiaris; target entry is the homologue from another species; at 5 mg/kg
[20] = biological target: T6, Polyunsaturated fatty acid 5-lipoxygenase (Homo sapiens); test: Inhibitory activity against 5-lipoxygenase (5-LO) in after oral administration of 5 mg/kg at 24 hr r to canine; assay type: organism-based; parameters: dose 5 mg/kg; settings: Canis lupus familiaris; target entry is the homologue from another species; at 5 mg/kg
[21] = biological target: T5, Cyclooxygenase (Homo sapiens); test: Inhibitory activity against cyclooxygenase (COX) in after oral administration of 5 mg/kg at 8 hr to canine; assay type: organism-based; parameters: dose 5 mg/kg; settings: Canis lupus familiaris; target entry is the homologue from another species; at 5 mg/kg
[22] = biological target: T6, Polyunsaturated fatty acid 5-lipoxygenase (Homo sapiens); test: Inhibitory activity against 5-lipoxygenase (5-LO) in after oral administration of 5 mg/kg at 2 hr to canine; assay type: organism-based; parameters: dose 5 mg/kg; settings: Canis lupus familiaris; target entry is the homologue from another species; at 5 mg/kg
[23] = biological target: T6, Polyunsaturated fatty acid 5-lipoxygenase (Homo sapiens); test: Inhibitory activity against 5-lipoxygenase (5-LO) in after oral administration of 5 mg/kg at 4 hr to canine; assay type: organism-based; parameters: dose 5 mg/kg; settings: Canis lupus familiaris; target entry is the homologue from another species; at 5 mg/kg

COc1ccc(-n2nc(C#CCN(O)C(C)=O)cc2-c2ccc(C)cc2)cc1
inhibition [1]: 100%
inhibition [2]: 74%
inhibition [3]: 100%
IC50 [4]: 30 nM

COc1ccc(-n2nc(C#CC(C)N(O)C(C)=O)cc2-c2ccc(Cl)cc2)cc1 (stereo not drawn)
inhibition [5]: 92%
inhibition [6]: 12%
inhibition [7]: 20%
inhibition [8]: 68%
inhibition [9]: 31%
inhibition [10]: 34%
inhibition [11]: 62%
inhibition [12]: 75%

CNC(=O)N(O)C(C)C#Cc1cc(-c2ccc(Cl)cc2)n(-c2ccc(OC)cc2)n1 (stereo not drawn)
inhibition [13]: 79%
inhibition [14]: 5%
inhibition [15]: 0%

COc1ccc(-n2nc(CCC(=O)N(C)O)cc2-c2ccc(Cl)cc2)cc1 [TEPOXALIN]
pIC50 [16]: 5.77
IC50 [17]: 4200 nM
IC50 [4]: 2850 nM

COc1ccc(-n2nc(C#CCN(O)C(N)=O)cc2-c2ccc(C)cc2)cc1
inhibition [18]: 76%
inhibition [5]: 82%
inhibition [19]: 15%
inhibition [8]: 11%
inhibition [20]: 10%
inhibition [21]: 46%
inhibition [22]: 53%
inhibition [23]: 32%
IC50 [17]: 310 nM
IC50 [4]: 12100 nM
